# Values of other authors in patent US11293039B2, “Method for producing organic acid salts from fermentation broth” (METABOLIC EXPLORER, priority 2017, dated 2022).
# Conditions: dilute aqueous solution, 25 °C
row,Compound,pKa
1,N#CCCCC(=O)O [4-Cyanobutanoic acid],2.42
2,CC(C(=O)O)C(=O)O [Methymalonic acid],3.07
3,O=C(O)C(O)CO (stereo not shown) [Glyceric acid],3.52
4,Alloxanic acid,6.64
5,N#CCC(=O)O [Cyanoacetic acid],2.45
6,O=C(O)CCCl [3-Chloropropanoic acid],3.98
7,O=C(O)CCCCCCC(=O)O [Octanedioic acid],4.52
8,O=C(O)[C@@H]1CCCCN1 [l-Pipecolic acid],2.28
9,CC(Cl)C(=O)O (stereo not shown) [2-Chloropropanoic acid],2.83
10,CC(CC(=O)O)CC(=O)O [3-Methylglutaric acid],4.24
